Experiment [1] concerns AsPC-1 (K-Ras G12D). As to the kind of experiment: Potency assay: pERK. The conditions noted are these: Homo sapiens. Type of experiment: cell-based.
The subject of experiment [2] is AsPC-1 (K-Ras G12D). Briefly: CellTiter-Glo cell viability assay. Type of experiment: cell-based. The note with it: Homo sapiens, ASPC1, 120 h. An outline of the steps:
(§1)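 Percent-of-DMSO luminescence values (CellTiter-Glo, day 5, plates equilibrated ~30 minutes at ambient temperature) were curve-fitted using a 4-parameter logistic equation; compounds had been added straight into wells containing the cells.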
(ATP-based viability assays read luminescence as a measure of living cells.)

Experiment [3] concerns NCI-H358 (K-Ras G12C). As to the kind of experiment: CellTiter-Glo cell viability assay. Type of experiment: cell-based. The conditions noted are these: Homo sapiens, NCI-H358, 120 h. The gist of the method:
as §1

In experiment [4] the target is KRAS G12D (Homo sapiens, UniProt P01116+P62937, G12D). As to the kind of experiment: Ras-Raf disruption / FRET / MOA assay (BRAF RBD). Type of experiment: biochemical. The note with it: with Cyclophilin A. An outline of the steps:
(§2)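 Compound-induced Ras–Cyclophilin A ternary complex disrupting BRAF RBD binding, read as IC50 from reduced TR-FRET ratio relative to DMSO. Final: Ras-GMPPNP 12.5 nM, BRAF RBD 50 nM, Cyclophilin A 25 μM, top compound 30 μM (3-fold, 10 points); 3 h at 25 °C, then 1.5 h with detection antibodies.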

For experiment [5], the target named is KRAS G12S (Homo sapiens, UniProt P01116+P62937, G12S). Briefly: Ras-Raf disruption / FRET / MOA assay (BRAF RBD). Type of experiment: biochemical. The note with it: with Cyclophilin A. The gist of the method: as §2
Experiment [6] addresses KRAS G12V (Homo sapiens, UniProt P01116+P62937, G12V). Briefly: Ras-Raf disruption / FRET / MOA assay (BRAF RBD). Type of experiment: biochemical. The conditions noted are these: with Cyclophilin A. An outline of the steps:
as §2

Experiment [7] has as its target KRAS G13C (Homo sapiens, UniProt P01116+P62937, G13C). As to the kind of experiment: Ras-Raf disruption / FRET / MOA assay (BRAF RBD). Type of experiment: biochemical. The conditions noted are these: with Cyclophilin A. The gist of the method:
as §2

The target in experiment [8] is KRAS G13D (Homo sapiens, UniProt P01116+P62937, G13D). As to the kind of experiment: Ras-Raf disruption / FRET / MOA assay (BRAF RBD). Type of experiment: biochemical. The note with it: with Cyclophilin A. The gist of the method: as §2
In experiment [9] the target is KRAS WT (Homo sapiens, UniProt P01116+P62937). As to the kind of experiment: Ras-Raf disruption / FRET / MOA assay (BRAF RBD). Type of experiment: biochemical. The note with it: with Cyclophilin A. An outline of the steps: as §2
The target in experiment [10] is NRAS G12C (Homo sapiens, UniProt P01111+P62937, G12C). As to the kind of experiment: Ras-Raf disruption / FRET / MOA assay (BRAF RBD). Type of experiment: biochemical. The gist of the method:
as §2

For experiment [11], the target named is KRAS G12C (Homo sapiens, UniProt P01116+P62937, G12C). As to the kind of experiment: Ras-Raf disruption / FRET / MOA assay (BRAF RBD). Type of experiment: biochemical. The note with it: with Cyclophilin A. The gist of the method:
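TR-FRET read-out after 1.5 h with anti-His Eu-W1024 (10 nM) and anti-GST APC (50 nM), following 3 h at 25 °C of compound (top 30 μM, 3-fold, 10 points) with 25 μM Cyclophilin A, 12.5 nM GMPPNP-loaded K-Ras G12C and 50 nM BRAF RBD; IC50 reported.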

The mark [12] stands for this setting: read-out: AsPC-1 Cell Viability assay data IC50, K-Ras G12D, 5-day treatment.
Where [13] appears, read: read-out: H358 Cell Viability assay data IC50, K-Ras G12C, 5-day treatment.
Where [14] appears, read: KRAS G12D FRET data IC50, Ras-Raf disruption.
The mark [15] stands for this setting: KRAS G12S FRET data IC50, Ras-Raf disruption.
[16] abbreviates: KRAS G12V FRET data IC50, Ras-Raf disruption.
The mark [17] stands for this setting: KRAS G13C FRET data IC50, Ras-Raf disruption.
Setting [18] is: KRAS G13D FRET data IC50, Ras-Raf disruption.
Setting [19] is: KRAS WT FRET data IC50, Ras-Raf disruption.
[20] abbreviates: NRAS G12C FRET data IC50, NRAS G12C.
The mark [21] stands for this setting: KRAS G12C FRET data IC50, Ras-Raf disruption.

Read-outs that look alike come from different tables or passages of the source.

Sequence of KRAS G12S (P01116 1-169 isoform P01116-2 G12S limits assumed): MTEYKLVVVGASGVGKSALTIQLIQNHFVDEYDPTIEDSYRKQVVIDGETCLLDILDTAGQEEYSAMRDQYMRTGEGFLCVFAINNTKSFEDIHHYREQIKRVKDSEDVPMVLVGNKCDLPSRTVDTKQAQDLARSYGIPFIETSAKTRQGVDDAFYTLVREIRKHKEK
Sequence of KRAS G12S (P62937 whole entry): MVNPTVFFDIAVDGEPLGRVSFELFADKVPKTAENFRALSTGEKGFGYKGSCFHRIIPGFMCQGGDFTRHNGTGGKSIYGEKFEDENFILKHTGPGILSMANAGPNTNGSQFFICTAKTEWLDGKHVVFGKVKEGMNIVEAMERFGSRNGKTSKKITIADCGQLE
Sequence of KRAS WT (P01116 1-169 isoform P01116-2 limits assumed): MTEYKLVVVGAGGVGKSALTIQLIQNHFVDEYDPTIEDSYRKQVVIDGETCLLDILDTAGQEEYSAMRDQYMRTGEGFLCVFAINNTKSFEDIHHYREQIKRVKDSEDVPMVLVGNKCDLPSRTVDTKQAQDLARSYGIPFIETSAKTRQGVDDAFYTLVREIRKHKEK
Sequence of KRAS WT (P62937 whole entry): as the sequence (P62937 whole entry) above
Sequence of KRAS G12C (P01116 1-169 isoform P01116-2 G12C limits assumed): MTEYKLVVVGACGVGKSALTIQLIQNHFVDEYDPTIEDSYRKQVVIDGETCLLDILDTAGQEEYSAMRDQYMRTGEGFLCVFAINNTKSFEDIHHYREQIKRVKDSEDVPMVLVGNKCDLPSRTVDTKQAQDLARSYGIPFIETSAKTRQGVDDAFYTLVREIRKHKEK
Sequence of KRAS G12C (P62937 whole entry): as the sequence (P62937 whole entry) above
Sequence of KRAS G12D (P01116 1-169 isoform P01116-2 G12D limits assumed): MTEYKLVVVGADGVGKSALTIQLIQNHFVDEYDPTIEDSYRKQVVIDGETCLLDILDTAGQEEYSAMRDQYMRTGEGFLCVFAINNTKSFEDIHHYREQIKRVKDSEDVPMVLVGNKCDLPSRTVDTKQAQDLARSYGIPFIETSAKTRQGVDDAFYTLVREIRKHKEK
Sequence of KRAS G12D (P62937 whole entry): as the sequence (P62937 whole entry) above
Sequence of NRAS G12C (P01111 whole entry G12C): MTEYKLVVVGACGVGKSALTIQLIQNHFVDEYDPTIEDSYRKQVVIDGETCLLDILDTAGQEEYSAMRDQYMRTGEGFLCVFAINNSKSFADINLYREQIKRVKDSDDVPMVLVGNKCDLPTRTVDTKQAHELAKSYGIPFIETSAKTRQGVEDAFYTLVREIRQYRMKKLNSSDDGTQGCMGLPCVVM
Sequence of NRAS G12C (P62937 whole entry): as the sequence (P62937 whole entry) above
Sequence of KRAS G13C (P01116 1-169 isoform P01116-2 G13C limits assumed): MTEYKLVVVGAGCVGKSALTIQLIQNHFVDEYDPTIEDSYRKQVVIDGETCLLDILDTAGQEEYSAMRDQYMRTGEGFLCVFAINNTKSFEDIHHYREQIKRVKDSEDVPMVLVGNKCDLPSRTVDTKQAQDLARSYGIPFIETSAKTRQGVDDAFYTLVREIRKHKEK
Sequence of KRAS G13C (P62937 whole entry): as the sequence (P62937 whole entry) above
Sequence of KRAS G13D (P01116 1-169 isoform P01116-2 G13D limits assumed): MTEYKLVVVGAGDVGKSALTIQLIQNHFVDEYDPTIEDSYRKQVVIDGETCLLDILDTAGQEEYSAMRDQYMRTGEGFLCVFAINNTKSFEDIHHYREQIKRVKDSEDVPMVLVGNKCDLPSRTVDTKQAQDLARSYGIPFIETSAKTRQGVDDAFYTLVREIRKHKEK
Sequence of KRAS G13D (P62937 whole entry): as the sequence (P62937 whole entry) above
Sequence of KRAS G12V (P01116 1-169 isoform P01116-2 G12V limits assumed): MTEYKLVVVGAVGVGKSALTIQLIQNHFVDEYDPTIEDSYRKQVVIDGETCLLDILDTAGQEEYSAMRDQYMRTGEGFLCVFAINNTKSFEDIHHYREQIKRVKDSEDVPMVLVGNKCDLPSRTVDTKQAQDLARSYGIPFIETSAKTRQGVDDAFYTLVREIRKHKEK
Sequence of KRAS G12V (P62937 whole entry): as the sequence (P62937 whole entry) above

In the case of `CCn1c(-c2cnccc2COC)c2c3cc(ccc31)-c1cc(O)cc(c1)C[C@H](NC(=O)[C@H](C(C)C)N(C)C(=O)CN(C)C(=O)[C@@H]1N[C@@H]1C(=O)OC)C(=O)N1CCC[C@H](N1)C(=O)OCC(C)(C)C2` [Example 49], in experiment [1] (ASPC1, read-out: pERK EC50), the concentration for a half-maximal effect (EC50) is < 5000 nM. Further, the IC50 in experiment [2] (setting [12]) is 1000 to 10000 nM; in experiment [3] (setting [13]), 1000 to 10000 nM; in experiment [4] (setting [14]) it was 100 to 1000 nM; in experiment [5] (setting [15]) it was 100 to 1000 nM; in experiment [6] (setting [16]), 100 to 1000 nM; in experiment [7] (setting [17]), 10 to 100 nM. For the same compound, the IC50 in [8] (setting [18]) was 100 to 1000 nM; in experiment [9] (setting [19]) it was 100 to 1000 nM; in experiment [10] (setting [20]), 10 to 100 nM; in experiment [11] (setting [21]), 10 to 100 nM.
As for `CCn1c(-c2cccnc2[C@H](C)OC)c2c3cc(ccc31)-c1cc(O)cc(c1)C[C@H](NC(=O)[C@H](C1CCCC1)N(C)C(=O)[C@H]1CCN(C[C@H]3CN3)C1=O)C(=O)N1CCC[C@H](N1)C(=O)OCC(C)(C)C2` [Example 58], the EC50 in experiment [1] (ASPC1, AsPC-1 KRAS G12D, read-out: pERK EC50) was < 5000 nM. Further, the IC50 is 100 to 1000 nM in [2] (K-Ras G12D, 5-day treatment, read-out: AsPC-1 Cell Viability assay data IC50); < 10 nM in [3] (K-Ras G12C, 5-day treatment, read-out: H358 Cell Viability assay data IC50); 100 to 1000 nM in [4] (Ras-Raf disruption, read-out: KRAS G12D FRET data IC50); 10 to 100 nM in experiment [5] (Ras-Raf disruption, read-out: KRAS G12S FRET data IC50); 10 to 100 nM in experiment [6] (Ras-Raf disruption, read-out: KRAS G12V FRET data IC50); 10 to 100 nM in [7] (Ras-Raf disruption, read-out: KRAS G13C FRET data IC50). Further, the IC50 was 10 to 100 nM in [8] (Ras-Raf disruption, read-out: KRAS G13D FRET data IC50); 10 to 100 nM in experiment [9] (Ras-Raf disruption, read-out: KRAS WT FRET data IC50); < 10 nM in [10] (NRAS G12C, read-out: NRAS G12C FRET data IC50); < 10 nM in experiment [11] (Ras-Raf disruption, read-out: KRAS G12C FRET data IC50).
Regarding `CCn1c(-c2cccnc2[C@H](C)OC)c2c3cc(ccc31)-c1cc(O)cc(c1)C[C@H](NC(=O)[C@H](C(C)C)N(C)C(=O)CN(C)C(=O)[C@@H]1N[C@H]1COC)C(=O)N1CCC[C@H](N1)C(=O)OCC(C)(C)C2` [Example 85], the EC50 in [1] (ASPC1, read-out: pERK EC50) was < 5000 nM. For the same compound, the IC50 is 1000 to 10000 nM in experiment [2] (setting [12]); 10 to 100 nM in [3] (setting [13]); 100 to 1000 nM in experiment [4] (setting [14]); 10 to 100 nM in [5] (setting [15]); 10 to 100 nM in [6] (setting [16]); < 10 nM in [7] (setting [17]). The IC50 in [8] (setting [18]), in [9] (setting [19]), in [10] (setting [20]) and in experiment [11] (setting [21]) was 10 to 100 nM each time.
Turning to `CCn1c(-c2cccnc2[C@H](C)OC)c2c3cc(ccc31)-c1cc(O)cc(c1)C[C@H](NC(=O)[C@H](C(C)C)N(C)C(=O)CN(C)C(=O)C1CN1CCOC)C(=O)N1CCC[C@H](N1)C(=O)OCC(C)(C)C2` (stereo partly drawn) [Example 90], the half-maximal effective concentration (EC50) in experiment [1] (ASPC1, read-out: pERK EC50) is < 5000 nM. Besides, the IC50 in [2] (setting [12]) was 100 to 1000 nM; in experiment [3] (setting [13]), < 10 nM; in experiment [4] (setting [14]) it was 100 to 1000 nM; in experiment [5] (setting [15]) it was 10 to 100 nM; in experiment [6] (setting [16]), 10 to 100 nM; in experiment [7] (setting [17]), 10 to 100 nM. In addition, the IC50 is 100 to 1000 nM in experiment [8] (setting [18]), 10 to 100 nM in [9] (setting [19]), < 10 nM in [10] (setting [20]) and < 10 nM in [11] (setting [21]).
With `CCn1c(-c2cccnc2[C@H](C)OC)c2c3cc(ccc31)-c1cc(O)cc(c1)C[C@H](NC(=O)[C@H](C1CCCC1)N(C)C(=O)CN(C)C(=O)[C@H]1CN1)C(=O)N1CCC[C@H](N1)C(=O)OCC(C)(C)C2` [Example 95], in experiment [1] (ASPC1, read-out: pERK EC50), the EC50 was < 5000 nM. In addition, the IC50 was 10 to 100 nM in [2] (setting [12]); < 10 nM in experiment [3] (setting [13]); 10 to 100 nM in experiment [4] (setting [14]); 10 to 100 nM in experiment [5] (setting [15]); 10 to 100 nM in experiment [6] (setting [16]); 10 to 100 nM in experiment [7] (setting [17]). Moreover, the IC50 in experiment [8] (setting [18]) is 10 to 100 nM; in [9] (setting [19]), 10 to 100 nM; in experiment [10] (setting [20]), < 10 nM; in experiment [11] (setting [21]), < 10 nM.
For the compound `CCn1c(-c2cccnc2[C@H](C)OC)c2c3cc(ccc31)-c1cc(O)cc(c1)C[C@H](NC(=O)[C@H](C(C)C)N(C)C(=O)[C@H](C)N(C)C(=O)[C@H]1CN1)C(=O)N1CCC[C@H](N1)C(=O)OCC(C)(C)C2` [Example 102], in [1] (ASPC1, read-out: pERK EC50), the EC50 is < 5000 nM. Further, the IC50 is 100 to 1000 nM in experiment [2] (setting [12]); 10 to 100 nM in experiment [3] (setting [13]); 100 to 1000 nM in experiment [4] (setting [14]); 100 to 1000 nM in experiment [5] (setting [15]); 100 to 1000 nM in experiment [6] (setting [16]); 10 to 100 nM in experiment [7] (setting [17]). The concentration for half-maximal inhibition (IC50) is 100 to 1000 nM in experiment [8] (setting [18]), 10 to 100 nM in experiment [9] (setting [19]), 10 to 100 nM in experiment [10] (setting [20]) and 10 to 100 nM in [11] (setting [21]).

As a reminder, the EC50 is the midpoint of the concentration-response curve. In general, IC50 refers to the concentration that gives 50% inhibition.

These data come from patent US20230233569A1 (Revolution Medicines, Inc., priority 2020, published 2023).
